“And” between values parts separate entries of the source, which are not always exact repeats. Equal values may be shown once. Toxic doses and inconclusive results are not listed. How the source made its calls: active means survival T/C of 150% or more; inactive means T/C below 125% in these data.
System: P388 leukemia ip, CD2F1 mice, survival T/C
Experiment: NCI In Vivo Anticancer Drug Screen. Data for tumor model P388 Leukemia (intraperitoneal) in CD2F1 (CDF1) mice
Conditions: endpoint: median survival time, higher = longer survival
In short: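 Mice carrying the transplanted tumor received test compound or vehicle. Survival was recorded in each group, and the value is the treated-group measurement divided by that of the vehicle-treated control group.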

[1] = dose: 50.0 mg/kg/injection, schedule: Q01DX005 (ip), vehicle: Klucel (hydroxypropylcellulose) (HPC)
[2] = dose: 100.0 mg/kg/injection, schedule: Q01DX005 (ip), vehicle: Klucel (hydroxypropylcellulose) (HPC)
[3] = dose: 200.0 mg/kg/injection, schedule: Q01DX005 (ip), vehicle: Klucel (hydroxypropylcellulose) (HPC)
[4] = dose: 12.5 mg/kg/injection, schedule: Q01DX009 (ip), vehicle: distilled water + Tween-80
[5] = dose: 25.0 mg/kg/injection, schedule: Q01DX009 (ip), vehicle: distilled water + Tween-80
[6] = dose: 50.0 mg/kg/injection, schedule: Q01DX009 (ip), vehicle: distilled water + Tween-80
[7] = dose: 50.0 mg/kg/injection, schedule: Q01DX009 (ip), vehicle: Klucel (hydroxypropylcellulose) (HPC)
[8] = dose: 100.0 mg/kg/injection, schedule: Q01DX009 (ip), vehicle: Klucel (hydroxypropylcellulose) (HPC)
[9] = dose: 200.0 mg/kg/injection, schedule: Q01DX009 (ip), vehicle: Klucel (hydroxypropylcellulose) (HPC)
[10] = dose: 12.5 mg/kg/injection, schedule: Q01DX009 (ip), vehicle: saline with Tween-80
[11] = dose: 25.0 mg/kg/injection, schedule: Q01DX009 (ip), vehicle: saline with Tween-80
[12] = dose: 50.0 mg/kg/injection, schedule: Q01DX009 (ip), vehicle: saline with Tween-80
[13] = dose: 100.0 mg/kg/injection, schedule: Q01DX001 (ip), vehicle: Klucel (hydroxypropylcellulose) (HPC)
[14] = dose: 200.0 mg/kg/injection, schedule: Q01DX001 (ip), vehicle: Klucel (hydroxypropylcellulose) (HPC)
[15] = dose: 60.0 mg/kg/injection, schedule: Q01DX005 (ip), vehicle: saline with Tween-80
[16] = dose: 50.0 mg/kg/injection, schedule: Q01DX005 (ip), vehicle: saline with Tween-80
[17] = dose: 100.0 mg/kg/injection, schedule: Q01DX005 (ip), vehicle: saline with Tween-80
[18] = dose: 200.0 mg/kg/injection, schedule: Q01DX005 (ip), vehicle: saline with Tween-80

Measured: T/C

COC(=O)C1CSC(c2c(CO)cnc(C)c2O)N1 (stereo not drawn)
inactive: dose: 100.0 mg/kg/injection, schedule: Q04DX002 (ip), vehicle: saline + Tween-80 + alcohol 105 % of control | dose: 200.0 mg/kg/injection, schedule: Q04DX002 (ip), vehicle: saline + Tween-80 + alcohol 96 % of control | dose: 400.0 mg/kg/injection, schedule: Q04DX002 (ip), vehicle: saline + Tween-80 + alcohol 107 % of control

CC(=O)OC1Cc2c(cc3c4c(cccc24)N(C(C)=O)C3)N(C)C1 (stereo not drawn)
inactive: dose: 100.0 mg/kg/injection, schedule: Q04DX002 (ip), vehicle: saline with Tween-80 105 % of control | dose: 200.0 mg/kg/injection, schedule: Q04DX002 (ip), vehicle: saline with Tween-80 108 % of control | dose: 400.0 mg/kg/injection, schedule: Q04DX002 (ip), vehicle: saline with Tween-80 100 % of control

COc1cccc(C2Nc3ccccc3C(=O)N2N2CCOCC2)c1 (stereo not drawn)
inactive: [1] 100 % of control | [2] 94 % of control | [3] 96 % of control

CCOC1(C)OC2OC(COC(c3ccccc3)(c3ccccc3)c3ccccc3)C(OC(=O)c3ccccc3)C(OC(=O)c3ccccc3)C2O1 (stereo not drawn)
inactive: [4] 98 % of control | [5] 90 % of control | [6] 99 % of control

O=C1c2ccccc2C(=O)c2c(NCCNCCNCCO)ccc(NCCNCCNCCO)c21
inactive: dose: 8.0 mg/kg/injection, schedule: Q01DX009 (ip), vehicle: acid diluted with saline 94 % of control | dose: 16.0 mg/kg/injection, schedule: Q01DX009 (ip), vehicle: acid diluted with saline 101 % of control | dose: 25.0 mg/kg/injection, schedule: Q01DX009 (ip), vehicle: water 111 % of control and 120 % of control | dose: 32.0 mg/kg/injection, schedule: Q01DX009 (ip), vehicle: acid diluted with saline 96 % of control | dose: 50.0 mg/kg/injection, schedule: Q01DX009 (ip), vehicle: water 111 % of control | dose: 64.0 mg/kg/injection, schedule: Q01DX009 (ip), vehicle: acid diluted with saline 98 % of control

Cc1cc(-c2ccc(N3C(=O)CC4(CCCCC4)C3=O)c(C)c2)ccc1N1C(=O)CC2(CCCCC2)C1=O
inactive: dose: 100.0 mg/kg/injection, schedule: Q04DX003 (ip), vehicle: Klucel (hydroxypropylcellulose) (HPC) 90 % of control | dose: 200.0 mg/kg/injection, schedule: Q04DX003 (ip), vehicle: Klucel (hydroxypropylcellulose) (HPC) 90 % of control

O=C(c1ccc(O)cc1)c1ccc(C(=O)c2ccc(O)cc2)cc1
inactive: [7] 99 % of control | [8] 97 % of control | [9] 90 % of control

COc1cc2ccnc(/C=N\O)c2cc1OC
inactive: [4] 102 % of control | [5] 116 % of control | [6] 109 % of control | dose: 100.0 mg/kg/injection, schedule: Q01DX009 (ip), vehicle: distilled water + Tween-80 102 % of control | dose: 200.0 mg/kg/injection, schedule: Q01DX009 (ip), vehicle: distilled water + Tween-80 91 % of control | dose: 400.0 mg/kg/injection, schedule: Q01DX009 (ip), vehicle: distilled water + Tween-80 93 % of control

OCC1CCC2CCCCC2N1 (stereo not drawn)
inactive: dose: 50.0 mg/kg/injection, schedule: Q01DX005 (ip), vehicle: saline 104 % of control | dose: 100.0 mg/kg/injection, schedule: Q01DX005 (ip), vehicle: saline 102 % of control | dose: 200.0 mg/kg/injection, schedule: Q01DX005 (ip), vehicle: saline 101 % of control

N=C(N)SCN1C(=O)c2ccccc2C1=O
inactive: dose: 6.25 mg/kg/injection, schedule: Q01DX009 (ip), vehicle: saline with Tween-80 114 % of control | [10] 107 % of control | [11] 123 % of control | [12] 122 % of control

Cn1c(Br)c(C=O)c2ccccc21
inactive: [13] 100 % of control | [14] 102 % of control | dose: 400.0 mg/kg/injection, schedule: Q01DX001 (ip), vehicle: Klucel (hydroxypropylcellulose) (HPC) 105 % of control

Cc1cnc(NCCCCNc2ncc(C)c(-c3ccccc3O)n2)nc1-c1ccccc1O
inactive: [1] 101 % of control | [2] 101 % of control | [3] 89 % of control

Cc1cccc(Cl)c1NC(=O)NCCCN1CCCCC1C (stereo not drawn)
inactive: [15] 94 % of control | dose: 120.0 mg/kg/injection, schedule: Q01DX005 (ip), vehicle: saline with Tween-80 87 % of control

COc1ccc(C2CN(C(=O)c3ccccc3)N=C(c3ccccc3)O2)cc1 (stereo not drawn)
inactive: [1] 100 % of control | [2] 101 % of control | [3] 94 % of control

CC(C)c1ccc2c(c1)CCC1C(C)(CN)CCCC21C (stereo not drawn)
inactive: [1] 97 % of control | [2] 99 % of control

COC(=O)C1=C(C)NC(C)=C(C(=O)OC)C1c1cc2ccccc2nc1Cl
inactive: [16] 92 % of control | [17] 88 % of control | [18] 92 % of control

O=c1[nH]c(Sc2ccccn2)ccc1[N+](=O)[O-]
inactive: dose: 6.25 mg/kg/injection, schedule: Q01DX009 (ip), vehicle: Klucel (hydroxypropylcellulose) (HPC) 97 % of control | dose: 12.5 mg/kg/injection, schedule: Q01DX009 (ip), vehicle: Klucel (hydroxypropylcellulose) (HPC) 91 % of control | dose: 25.0 mg/kg/injection, schedule: Q01DX009 (ip), vehicle: Klucel (hydroxypropylcellulose) (HPC) 98 % of control and 92 % of control

O=C(N/N=C/c1ccccc1[OH2+])c1ccncc1.O=S(=O)([O-])[O-].[Fe+2]
inactive: [13] 94 % of control | [14] 92 % of control

COC(=O)CCCC1=NC2=CC=CC3=NC(C)=NC(=N1)N23
inactive: [10] 123 % of control | [11] 114 % of control | [12] 98 % of control | dose: 100.0 mg/kg/injection, schedule: Q01DX009 (ip), vehicle: saline with Tween-80 104 % of control

COC(=O)NN(C(=O)OC)C1CCC2C1c1ccccc1N(C(=O)OC)N2C(=O)OC (stereo not drawn)
inactive: dose: 60.0 mg/kg/injection, schedule: Q01DX005 (ip), vehicle: Klucel (hydroxypropylcellulose) (HPC) 108 % of control | dose: 120.0 mg/kg/injection, schedule: Q01DX005 (ip), vehicle: Klucel (hydroxypropylcellulose) (HPC) 113 % of control | dose: 240.0 mg/kg/injection, schedule: Q01DX005 (ip), vehicle: Klucel (hydroxypropylcellulose) (HPC) 103 % of control

CCn1ncc2c(=O)c(C(=O)c3ccccc3)c[nH]c21
inactive: [16] 99 % of control | [17] 97 % of control | [18] 104 % of control

O=[N+]([O-])c1ccc(C(c2ccccc2)c2ccccc2)cc1
inactive: dose: 200.0 mg/kg/injection, schedule: Q01DX009 (ip), vehicle: saline with Tween-80 90 % of control

COc1ccc(/C=N/N2C(=O)c3ccccc3C2=O)cc1
inactive: [1] 105 % of control | [2] 93 % of control | [3] 100 % of control

CCCCCCN1CCS(=O)(=O)CC1
inactive: [7] 91 % of control | [8] 94 % of control | [9] 90 % of control

CC(=O)O[C@H]1CC[C@@]2(C)[C@@H](CC[C@@H]3[C@@H]2CC[C@]2(C)C(=NCCO)CC[C@@H]32)C1
inactive: [1] 108 % of control | [2] 105 % of control | [3] 99 % of control

[B-]1n2ccc[n+]2[B-]n2ccc[n+]21
inactive: dose: 15.0 mg/kg/injection, schedule: Q01DX005 (ip), vehicle: saline with Tween-80 100 % of control | dose: 30.0 mg/kg/injection, schedule: Q01DX005 (ip), vehicle: saline with Tween-80 100 % of control | [15] 98 % of control

COc1ccc(C2CC(C)(OC)Oc3cc4c(cc32)OCO4)cc1 (stereo not drawn)
inactive: [13] 100 % of control | [14] 94 % of control

CC1=C([N+](=O)[O-])[C@@H](N2CCOCC2)[C@](C)(N2CCOCC2)S1
inactive: [1] 105 % of control | [2] 105 % of control | [3] 105 % of control

NC(=O)c1nc2c(N)nc(-c3ccccc3)nc2nc1N
inactive: dose: 150.0 mg/kg/injection, schedule: Q01DX009 (ip), vehicle: saline with Tween-80 94 % of control | dose: 300.0 mg/kg/injection, schedule: Q01DX009 (ip), vehicle: saline with Tween-80 95 % of control

CN(C)/N=C1\C(=O)Nc2ccc(Br)cc21
inactive: [7] 100 % of control | [8] 113 % of control | [9] 108 % of control

S=C1N(c2ccc(Br)cc2)C2=Nc3ccccc3SC(=C2N=Nc2ccccc2Cl)N1c1ccc(Cl)cc1
inactive: [16] 97 % of control | [17] 93 % of control | [18] 93 % of control
